Data published in ChEMBL document CHEMBL1142607, “Haterumadysins A-D, sesquiterpenes from the Okinawan marine sponge Dysidea chlorea” (2006).
Calls of active or inactive are those of the source. The calls are words filed in the database; no cut-off is given here.

Columns and labels:
Type in all cases: functional
[1] = test system: Echinoidea; assay: (§1) Inhibition of cell division in fertilized sea urchin egg at 1 ppm
[2] = as §1; settings: Echinoidea
[3] = test system: Echinoidea; assay: Inhibition of cell division in fertilized sea urchin egg at 3 ppm

Compound	Activity [1]	other results
CC(=O)O[C@@H]1OC=C[C@]12C=C1C=C(C)CC[C@H]1C2(C)C	Active	
CC(=O)O[C@@H]1OC=C[C@]12Cc1cc(C)ccc1C2(C)C	Active	
CC(=O)O[C@@H]1OC=C[C@]12C[C@H]1C=C(C)CC[C@H]1C2(C)C [SPIRODYSIN]		inhibition at 1 ppm [2]: 90%
CC1=C[C@@H]2C[C@]3(C=COC3=O)C(C)(C)[C@@H]2CC1		Activity [3]: inactive
CC(=O)O[C@@H]1OC=C[C@]12CC1=C[C@](C)(OO)CC[C@H]1C2(C)C	Active	
CC(=O)O[C@@H]1OC=C[C@]12CC1=C[C@@](C)(OO)CC[C@H]1C2(C)C	Active	
